Measured values from publication PMC6983514 (British Journal of Clinical Pharmacology, 2020).
Where “and” joins values, the source holds several entries; their conditions need not be identical. Equal entries are not always repeated. Where two headings read alike, the source gives them in different places.

Assays:
[1] = system: breast cancer resistance protein (BCRP, encoded by ABCG2); conditions: cited from earlier work
[2] = system: 3‐hydroxy‐3‐methyl‐glutaryl‐coenzyme A reductase (HMGCR); conditions: background statement in introduction; cited from earlier work
[3] = Plasma concentrations of ATV and metabolites by HPLC-MS/MS in NSTE-ACS patients at V2 (1 month); type: in vivo, human; conditions: for concentration at […] / concentration at 1 month: human, plasma, oral; for concentration at […]: plasma at V2, median […] since last ATV (estimated), read-out: Conc (ng/mL), median (IQR); for concentration at 1 month: median ATV concentration, unadjusted
From the text: This investigation harnessed the Pharmacogenetics of Acute Coronary Syndrome (PhACS) study, described previously.13 Briefly, PhACS was a UK multicentre prospective observational study that recruited 1470 eligible patients hospitalised with an NSTE‐ACS between 2008–2012 and followed them up at 1 (V2) and 12 (V3) months. Demographic, comorbidity and prescription information was collected at baseline; drug use, drug adherence, and new clinical events were captured during follow up. PhACS participants were genotyped using the Illumina HumanOmniExpressExome‐8 v1.0 BeadChip at Edinburgh Genomics (Roslin Institute, Scotland).
Briefly, 50‐μL plasma samples were first mixed with 20 μL of a composite internal standard solution containing a deuterated internal standard for each analyte, and then diluted further by addition of 180 μL 100% acetonitrile containing 0.3% acetic acid. Following centrifugation, the supernatant was diluted 1:2 in water and a 5‐μL aliquot injected for analysis. Analytes were separated using a 2.7‐μm Halo C18 column (50 × 2.1 mm ID, 90 Å, Hichrom Limited, Reading, UK, part number: 92812–402) with gradient elution, housed within a Shimadzu Nexera X2 modular system (Kyoto, Japan). Analytes were detected in low mass positive ionisation mode using multiple reaction monitoring (Sciex triple quadrupole 6500 QTRAP mass spectrometer with a Turbo electrospray source, AB Sciex, Warrington, UK). […] Calibration and quality control (QC) samples were prepared in pooled healthy human volunteer K3 EDTA plasma (Sera Laboratories International, West Sussex, UK).

[4] = Main analysis: all subsets multivariable linear regression with BIC model averaging of clinical factors/comedications on ATV analyte levels, ratios and sum total; type: in vivo, human; conditions: log10 transformed plasma concentration, model averaged coefficient
From the text: All variables were considered in model selection (see below) except hypertension, hyperlipidaemia, and prior CVD.
Prior to modelling, all endpoints were log10 transformed to normalise the distribution of (observed) residuals and optimise homoscedasticity.
Third, the derived models were ranked according to the Bayesian information criterion (BIC), which is more conservative than the corrected Akaike information criterion because BIC carries a larger penalty for increasing model complexity.19 Fourth, all models with a BIC within 2 of the model with the lowest BIC (BIC Δ < 2) underwent model averaging to produce model averaged (unstandardised) coefficients and standard errors for all the covariates included in this set of models, to enable multimodel inferences. The model selection constraint of Δ < 2 was chosen because the empirical evidence supporting each of these models is considered essentially equivalent.19 Conditional averaging was used, and so for a given covariate, its coefficient and standard error were averaged from only those models with BIC Δ < 2 that contained the covariate.20 This approach was taken because of the interest in assessing the relationship between individual covariates and the endpoints, with overall model predictive capability of secondary importance.21 The relative importance of each of the selected covariates to the endpoint was assessed by summing the BIC‐derived model weight for all models that underwent model averaging and contained the covariate. The P‐value for each covariate in the final model is provided for reference only. The utility of the final produced model for describing the observed variation in the endpoint was assessed using the unadjusted R^2 value. This process was undertaken for all endpoints. The above described covariate selection and model averaging was carried out using the R statistical package, MuMIn. 20

[5] = Genotype-stratified analysis: loop diuretic association with endpoints by ABCG2 rs2231142 (Q141K); type: in vivo, human; conditions: adjusted
Experimental: (§1) Exploratory genotype‐stratified analyses were carried out to further assess key identified drug–drug interactions. Specifically, the adjusted association of PPIs with endpoints was determined following cohort stratification by CYP2C19 predicted metaboliser status, because PPIs are metabolised by CYP2C19.22, 23 CYP2C19 was stratified by *2 (rs4244285; directly genotyped) and *17 (rs12248560; imputed) diplotypes into: extensive (EM, *1/*1), intermediate (IM, *1/*2 or *2/*17), poor (PM, *2/*2), rapid (RM, *1/*17) and ultra‐rapid metabolisers (UM, *17/*17). Due to the small number of PM (n = 10) and UM (n = 24) patients, PMs were combined with IMs, and UMs with RMs, for analysis. […] Secondly, the impact of https://www.guidetopharmacology.org/GRAC/ObjectDisplayForward?objectId=792 rs2231142 (Q141K; imputed) on the adjusted associations of loop diuretics with the endpoints was considered.
(§2) The sensitivity and genotype‐stratified analyses were only conducted on those endpoints where the perpetrator comedication of interest had been included in the endpoint's main analysis model, and P < .05 was taken to indicate significance. All statistical testing was carried out in the R computing environment,26 except for the secondary stepwise analysis that was undertaken in IBM SPSS version 22.0 (IBM Corp, Armonk, NY, USA); boxplots were produced in GraphPad Prism (version 5.00 for Windows: GraphPad Software Inc., San Diego, USA).

[6] = Genotype-stratified analysis: PPI association with endpoints by CYP2C19 predicted metaboliser status; type: in vivo, human; conditions: adjusted
Experimental: as §1, §2

[7] = cited from earlier work
[8] = ABCG2 rs2231142 WT (n = 435), on LD n = 74
[9] = ABCG2 rs2231142 variant carrier (n = 136), on LD n = 22
[10] = CYP2C19 EM (n = 233), on PPI n = 88
[11] = CYP2C19 PM/IM (n = 152), on PPI n = 58
[12] = CYP2C19 RM/UM (n = 186), on PPI n = 83

Compound	concentration at […] ([3]; 40 mg daily, 40 mg ATV daily) [ng/mL]	concentration at […] ([3]; 80 mg daily, 80 mg ATV daily) [ng/mL]	B (SE), ATV dose on analyte level [4]	B (SE), Age on analyte level [4]	B (SE), Body mass index on analyte level [4]	B (SE), Loop diuretic on analyte level [4]	B (SE), Proton pump inhibitor on analyte level [4]	B (SE), Sample storage duration on analyte level [4]	B (SE), Time since last ATV on analyte level [4]	B (SE), Loop diuretic on analyte level [5, 8]	B (SE), Loop diuretic on analyte level [5, 9]	B (SE), Proton pump inhibitor on analyte level [6, 10]	B (SE), Proton pump inhibitor on analyte level [6, 11]	B (SE), Proton pump inhibitor on analyte level [6, 12]	activity against HMGCR [2]	further results
CCCCNc1cc(C(=O)O)cc(S(N)(=O)=O)c1Oc1ccccc1 [bumetanide]	–	–	–	–	–	–	–	–	–	–	–	–	–	–	–	inhibition of BCRP in vitro [1]: inhibit
CC(C)c1c(C(=O)Nc2ccc(O)cc2)c(-c2ccccc2)c(-c2ccc(F)cc2)n1CC[C@@H](O)C[C@@H](O)CC(=O)O [4‐OH ATV]	–	–	–	–	–	–	–	–	–	–	–	–	–	–	inhibit	–
CC(C)c1c(C(=O)Nc2ccc(O)cc2)c(-c2ccccc2)c(-c2ccc(F)cc2)n1CCC1CC(O)CC(=O)O1 (centres unmarked) [4‐OH ATV L]	–	–	–	–	–	–	–	–	–	–	–	–	–	–	inactive	–

The next lines start with results.

concentration at […] ([3]; 40 mg daily, 40 mg ATV daily) [ng/mL]	concentration at […] ([3]; 80 mg daily, 80 mg ATV daily) [ng/mL]	B (SE), ATV dose on analyte level [4]	B (SE), Age on analyte level [4]	B (SE), Body mass index on analyte level [4]	B (SE), Loop diuretic on analyte level [4]	B (SE), Proton pump inhibitor on analyte level [4]	B (SE), Sample storage duration on analyte level [4]	B (SE), Time since last ATV on analyte level [4]	B (SE), Loop diuretic on analyte level [5, 8]	B (SE), Loop diuretic on analyte level [5, 9]	B (SE), Proton pump inhibitor on analyte level [6, 10]	B (SE), Proton pump inhibitor on analyte level [6, 11]	B (SE), Proton pump inhibitor on analyte level [6, 12]	Compound	activity against HMGCR [2]	further results
4.24	7	0.215 (0.051)	0.006 (0.001)	−0.006 (0.002)	0.084 (0.035)	0.106 (0.026)	0.0001 (0.00003)	−0.0006 (0.0001)	0.102 (0.040)	0.044 (0.075)	0.065 (0.039)	0.018 (0.057)	0.199 (0.042)	CC(C)c1c(C(=O)Nc2ccccc2O)c(-c2ccccc2)c(-c2ccc(F)cc2)n1CCC1CC(O)CC(=O)O1 (centres unmarked) [2‐OH ATV L]	inactive	B (SE), Hepatic disease on analyte level [4]: −0.289 (0.134)
2.51	3.97	0.222 (0.064)	–	−0.006 (0.003)	0.121 (0.043)	0.139 (0.033)	0.0002 (0.00004)	−0.0007 (0.0001)	0.149 (0.048)	0.077 (0.089)	0.076 (0.050)	0.084 (0.070)	0.232 (0.053)	CC(C)c1c(C(=O)Nc2ccccc2)c(-c2ccccc2)c(-c2ccc(F)cc2)n1CCC1CC(O)CC(=O)O1 (centres unmarked) [ATV L]	–	B (SE), Amiodarone on analyte level [4]: 0.320 (0.142); B (SE), Sex (F vs M) on analyte level [4]: −0.097 (0.038)
5.35	6.93	0.212 (0.048)	0.007 (0.001)	−0.006 (0.002)	0.074 (0.033)	0.062 (0.024)	−0.0001 (0.00003)	−0.0007 (0.0001)	0.072 (0.039)	−0.051 (0.077)	0.045 (0.038)	0.032 (0.050)	–	CC(C)c1c(C(=O)Nc2ccccc2O)c(-c2ccccc2)c(-c2ccc(F)cc2)n1CC[C@@H](O)C[C@@H](O)CC(=O)O [2‐OH ATV]	–	B (SE), Smoking on analyte level ([4]; current vs previous/never): −0.076 (0.028); B (SE), Chronic kidney disease on analyte level [4]: 0.111 (0.051); B (SE), Diabetes mellitus on analyte level [4]: 0.079 (0.031)
3.96	5.22	0.153 (0.058)	0.004 (0.001)	–	0.099 (0.040)	0.093 (0.030)	–	−0.001 (0.0001)	0.121 (0.044)	0.041 (0.086)	0.052 (0.045)	0.046 (0.061)	0.162 (0.050)	CC(C)c1c(C(=O)Nc2ccccc2)c(-c2ccccc2)c(-c2ccc(F)cc2)n1CC[C@@H](O)C[C@@H](O)CC(=O)O [ATV, atorvastatin, reference compound]	inhibit	concentration at 1 month ([3]; patients not on a PPI): 4.9 ng/mL; concentration at 1 month ([3]; patients not on a loop diuretic): 4.9 ng/mL; concentration at 1 month ([3]; patients on a PPI): 5.6 ng/mL; concentration at 1 month ([3]; patients on a loop diuretic): 6.8 ng/mL; increase in median ATV concentration ([3]; with PPIs vs without): 14% and ~ 14%; increase in median ATV concentration ([3]; with loop diuretics vs without): 38% and ~ 38%; B (SE), Amiodarone on analyte level [4]: 0.282 (0.129); fraction of an ATV dose excreted through the kidneys [7]: < 2%
